# From the pKa sets of Baltruschat and Czodrowski (2020)
# Conditions: acidic group
row,SMILES,pKa
1,C=C=CC(=O)O,3.96
2,CC[NH+](CC)CC(=O)O,1.98
3,Oc1ccc2ccnnc2c1,7.56
4,O=C(O)/C=C\SC1CCCCC1,4.95
5,Oc1ccc2[nH]ncc2c1,10.1
6,CCCC[NH2+]CCC(=O)O,3.57
7,Cn1c(=O)[nH]c2ncn(C)c2c1=O,8.65
8,NS(=O)(=O)c1ccc(P(=O)(O)O)cc1,1.42
9,COc1cc(C(=O)O)cc(OC)c1O,4.2
10,CC(C)(C)CCCC(=O)O,4.88
11,Brc1nnn[nH]1,2.13
12,[NH3+]C[C@H](O)C(=O)O,2.78
13,COc1ccc(C(=S)Nc2ccc(Cl)c(Cl)c2)cc1,10.1
14,O=C1O[C@@H]([C@H](O)CO)C([O-])=C1O,11.6
15,CC[NH2+]C(C)C(=O)O (centres undefined),2.22
16,CC(C)(C)S,11.1
17,Cc1ccc(O)c([O-])c1,13.3
18,O/N=C1\CCCCC\C1=N/O,10.7
19,C=C(C)[C@@H]1C[NH2+][C@H](C(=O)O)[C@@H]1CC(=O)O,2.09
20,Cc1ccc([Se]O)c([N+](=O)[O-])c1,10.7
21,CC(C)c1ccc2c(c1)CC[C@H]1[C@](C)(C(=O)O)CCC[C@]21C,5.7
22,N#CCC#N,11.2
23,NS(=O)(=O)C(F)(F)Cl,6.5
24,C[NH2+]C(C)C(=O)O (centres undefined),2.22

row,SMILES,pKa
1,COc1ccc2c(c1O)-c1c3c(cc4c1[C@H](C2)N(C)CC4)OCO3,10.1
2,C[C@H](CCC(=O)O)[C@H]1CC[C@H]2[C@@H]3[C@@H](O)C[C@@H]4C[C@H](O)CC[C@]4(C)[C@H]3CC[C@]12C,5.08
3,C[C@H](C1CC1C(=O)O)[C@H]1CC[C@H]2[C@@H]3[C@@H](O)C[C@@H]4C[C@H](O)CC[C@]4(C)[C@H]3CC[C@]12C (some centres undefined),5.01
4,C[NH+](C)Cc1cc(Cl)cc(C[NH+](C)C)c1O,5.2
5,S=C(Nc1ccc(Cl)c(Cl)c1)c1ccc(Cl)cc1,9.51
6,CCCP(=O)(O)CCC,3.33
7,O=CNO,8.77
8,CC[Se](=O)O,5.28
9,C[n+]1cc(O)ccn1,1.74
10,Nc1nnn[nH]1,5.98
11,[O-]c1ccc(Nc2ccc(O)cc2)cc1,10.6
12,CCC(C)(C)C(=O)O,5.03
13,[NH3+][C@H]1CONC1=O,4.54
14,Cc1c(Cl)c([N+](=O)[O-])cc2c1nnn2O,3.1
15,O=C1NC(=S)NC12CCCCC2,8.79
16,CCC#CC(=O)O,2.6
17,O/N=C\c1ccco1,10.8
18,C[NH+](C)CCc1nnn[nH]1,4.59
19,CCCS(=O)O,2.35
20,Nc1ccc(S(=O)(=O)Nc2ccc(N)nc2)cc1,8.82
21,CCc1cc(C)cc(O)c1,10.1
22,Cc1n[nH]c2ncnc(N)c12,11.1
23,O=C(O)CCS,4.38
24,N#CC(C#N)=C(C(C#N)C#N)C(C#N)C#N,2.25

# The next lines start with the values.
row,pKa,SMILES
1,10.5,NC(=O)c1ccncc1
2,7.5,O=[N+]([O-])c1cccc(S(=O)(=O)Nc2ccccc2)c1
3,4.93,C[n+]1cc(O)c2ccccc2c1
4,5.3,O=N/C(Cc1ccccc1)=N\O
5,6.78,CC(=O)Nc1ccc(O)c([N+](=O)[O-])c1
6,10.8,[O-]B(O)c1cccc(O)c1
7,4.2,O=[N+]([O-])c1n[nH]c(Oc2ccccc2)n1
8,8.8,O=C(Cc1ccccc1)c1cc[n+](Cc2ccccc2)cc1
9,-6.56,Cc1cccc(S(=O)(=O)O)c1
10,2.12,O=C(O)C(CO)[NH2+]Cc1cc(Cl)ccc1O (centres undefined)
11,2.29,C[n+]1cccc(C(=O)O)c1
12,2.9,Cc1cccc(C(=O)O)c1Br
13,9.93,COc1ccc(S(N)(=O)=O)cc1
14,4.8,COc1ccccc1-c1nnn[nH]1
15,8.91,O=C(CC(=O)c1ccccc1)Nc1ccc([N+](=O)[O-])cc1
16,10.8,CCc1ccc(O)c(C(C)C)c1
17,8.7,N#C/C(=C(\[O-])O)c1ccccc1
18,4.13,COc1cc(C(=O)O)ccc1C
19,4.8,CC(=O)NS(=O)(=O)c1ccc(C)cc1
20,8.63,NS(=O)(=O)c1ccc([N+](=O)[O-])cc1
21,6.33,S=c1[nH]c2ccccc2o1
22,5.15,O=S(=O)(Cc1ccccc1)c1cnn[nH]1
23,7.2,Oc1ccc(/N=N/c2nc3ccccc3s2)c2cccnc12
24,3.1,O=C(O)[C@@H]1O[C@H](Oc2cccc3[nH+]cccc23)[C@@H](O)[C@H](O)[C@H]1O
25,11.5,CCc1c(C)nn(-c2ccccc2)c1O
26,9.54,O=C(CC(=O)c1ccccc1)Nc1ccccc1[N+](=O)[O-]
27,10.1,O=[N+]([O-])c1ccc(S(=O)(=O)NCc2ccccc2)cc1
28,7.75,CN(C)C(=O)CC(=O)c1ccncc1
29,11,NC(=O)CN(CCN(CC(N)=O)Cc1ccccc1O)Cc1ccccc1[O-]
30,8.2,c1ccc(CSc2cnn[nH]2)cc1

# Same assay, conditions: basic group
row,SMILES,pKa
1,C=Cc1ccc(C)nc1,5.67
2,CCN(CC)CCC(=O)Nc1c(C)cccc1C,8.96
3,NCCCCCC[NH3+],10.2
4,[S-]c1ccccn1,9.89
5,CCN1CCCCC1,10.7
6,Oc1ccc2ccnnc2c1,3.31
7,Cc1cc([O-])[nH+]c([S-])n1,7.73
8,CN1CC[NH2+]CC1,5.05
9,C(=C\C[NH+]1CCCCC1)/CN1CCCCC1,7.9
10,CNC(C)C(=O)[O-] (centres undefined),10.2
11,Nc1nc([S-])c2ncn([C@H]3O[C@@H](CO)[C@H](O)[C@@H]3O)c2n1,8.34
12,C1CCN(CCN2CCCC2)C1,9.47
13,c1csc(C2CCCN2)c1 (centres undefined),9.35
14,Cc1cc(Br)cc(C)c1N,3.54
15,Cn1c(=O)[nH]c2ncn(C)c2c1=O,0.5
16,CC1=Nc2ccc([N+](=O)[O-])cc2[NH+]=C(C)C1,2.2
17,CCNC(=O)C1CCCCN1 (centres undefined),8.6
18,[NH3+]CCc1cnc[nH]1,6.28
19,CCc1cccnn1,3.58
20,C(COCCc1nnn[nH]1)OCCc1nnn[nH]1,4.79
21,Cc1cnc2c(c1)c(C)c(C)c1cccnc12,5.34
22,CCN(CC#N)CC#N,3.98
23,CCCCOc1ccc(OCCCN2CCOCC2)cc1,6.24
24,CN(C)c1cccc(C#N)c1,2.97

row,SMILES,pKa
1,CNC(=O)NC,1.02
2,CNCl,1.71
3,CC(C)NNC1CCN(C(C)C)CC1,9.55
4,C=CCN,9.74
5,Cc1cc(N)cc(C)c1C,5.15
6,COC(=O)C1CCCN(C)C1 (centres undefined),8.45
7,CC(O)CNCCO (centres undefined),8.81
8,C[C@H]1O[C@H](O[C@H]2CC[C@H](n3ccc(N)nc3=O)O[C@@H]2C)[C@H](O)[C@@H](O)[C@@H]1N(C)C,7
9,Cc1cc(C)cc(N)c1,4.81
10,CCc1cc(/N=N/c2ccc(N(C)C)cc2)ccc1C,2.59
11,CNc1cccc(C)c1,4.94
12,CCc1ccc(/N=N/c2ccc(N(C)C)cc2)cc1C,2.6
13,Cc1ccncc1C,6.53
14,COCCN,9.67
15,CCNN(CC)CC,7.08
16,N[C@H]1CCC[C@@H]1O,9.28
17,CN1C[C@H](C(=O)[O-])C[C@@]2(O)c3cccc4[nH]cc(c34)C[C@H]12,9.17
18,COc1ccc(-c2ncc(-c3ccc(N)cc3)o2)cc1,3.71
19,CC1=CSC2=NCCCN12,10.3
20,Nc1nnn[nH]1,1.81
21,CCN(CC)CCCC(C)Nc1cc(OC)cc2cccnc12 (centres undefined),10.3
22,Cc1cc[nH+]c([O-])n1,3.15
23,CC(C)(C)c1cc(N)cc(C(C)(C)C)c1[N+](=O)[O-],2.93
24,C=CCSS/C(CCO)=C(/C)N(C=O)Cc1cnc(C)nc1N,5.65

row,SMILES,pKa
1,Cc1ccc(N)cc1CN,9.33
2,N=C(Nc1ccccc1)Nc1ccccc1,9.94
3,c1ccc(CNc2ncnc3[nH]cnc23)cc1,4.09
4,C[NH+](C)CCc1nnn[nH]1,-2.8
5,CN[C@H]1C[C@@H]1[NH2+]C,5.65
6,C[C@H](N)[C@H](C)N,9.84
7,Cn1cnc2cnc([O-])nc21,9.19
8,CN(C)CCCN(C)CCC[NH+](C)C,9
9,Nc1ccc2ccncc2c1,6.2
10,C#CC(C)(C)NC(C)(C)C#C,6.45
11,CCOc1ccc2[nH]c(C(C)C)nc2c1,6.17
12,NNC(=O)CC([NH2+]CCO)C(=O)[O-] (centres undefined),2.13
13,CNCC[NH2+]C,7.29
14,CCCCC1CCCN1C (centres undefined),10
15,COc1ccc(-c2nc3ncccc3[nH]2)c(OC)c1,4.63
16,O=C1c2ccccc2CN1C1CC2CCC(C1)N2Cc1ccccc1 (centres undefined),8.71
17,Nc1ccc(S(=O)(=O)Nc2ccc(N)nc2)cc1,4.19
18,Cc1ccnc(-c2cc(C)ccn2)c1,5.32
19,[O-]c1c(Cl)c(Cl)cc(Cl)c1CN1CCOCC1,8.23
20,NCC[S-],10.7
21,Cc1n[nH]c2ncnc(N)c12,4.61
22,CCCSC(=O)CCCc1c[nH]cn1,7.55
23,CCOC(=O)CCN,9.13
24,Nc1ccc2nc3cc(N)ccc3cc2c1,8.11

# The next lines start with the values.
row,pKa,SMILES
1,3.57,NC(=O)c1ccncc1
2,5.29,CCNc1ccccc1
3,-3.92,O=[N+]([O-])c1ccc(-n2cnnn2)cc1
4,1.41,CCOc1ccc(Nc2ccccc2)cc1
5,-1.15,Cn1c(=O)cnc2ccccc21
6,5.08,NC(=O)Cc1ccncc1
7,3.88,CSc1cnc2ccccc2c1
8,2.45,N/C(CC[NH2+]c1ccccc1)=N\O
9,9.17,NC(Cc1ccccc1)C(=O)[O-] (centres undefined)
10,8.84,COc1cc(Br)cc(C(=O)N[C@@H]2C[C@H]3CC[C@@H](C2)N3Cc2ccccc2)c1OC
11,4.88,C=CC(C)(C)Nc1ccccc1
12,10.4,C[Si](C)(CN)c1ccccc1
13,7,CN=C1C(C)(C)c2ccccc2C1(C)C
14,9.27,[O-]c1cnnc2ccccc12
15,2.2,N/C(=[NH+]\O)c1ccccc1N
16,3.26,Cc1cccc(Cl)c1/C(=N/CCC[NH+](C)C)c1ccccc1
17,5.43,Cc1ccc([N+](=O)[O-])c2c(NCCC[NH+](C)C)cc(-c3ccccc3)nc12
18,9.77,COc1cccc([O-])n1
19,5,C[NH+](C)CCCNc1c2ccccc2nc2c(Cl)ccc([N+](=O)[O-])c12
20,4.6,Nc1cccc2cccc(N)c12
21,7.55,NC(=O)C(N)Cc1c[nH]c2ccccc12 (centres undefined)
22,3.93,CSc1nccc2ccccc12
23,6.23,CC(=O)C(CN1CCOCC1)c1ccccc1 (centres undefined)
24,3,CCNc1nnc(-c2ccccc2)s1
